Legend:
[1] = biological target: T1, rCGGBP1 (Homo sapiens, UniProt Q9UFW8); experiment: in vitro Alu DNA immunoprecipitation with qPCR (anti-FLAG); assay type: binding; details: 100 μM compound, 45 min, room temperature, PBS; Alu DNA 1 μg, protein 0.5 μg
T1 construct: gene CGGBP1; recombinant, C-terminal FLAG tag; about 20 kDa
T1 sequence (Q9UFW8 1-167): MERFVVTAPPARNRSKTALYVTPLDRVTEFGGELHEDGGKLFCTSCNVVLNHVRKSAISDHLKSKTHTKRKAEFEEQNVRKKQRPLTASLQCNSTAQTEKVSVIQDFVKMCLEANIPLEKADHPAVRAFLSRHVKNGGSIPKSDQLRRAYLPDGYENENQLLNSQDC
Description: in vitro Alu DNA immunoprecipitation with qPCR (anti-FLAG) on rCGGBP1 | Pre-incubation of rCGGBP1 with Givinostat reduces the amount of Alu DNA co-precipitating with FLAG-antibody by […]

[2] = biological target: T1, rCGGBP1; experiment: DBID dot blot of protein binding to immobilised genomic DNA, chemiluminescence densitometry; details: 100 μM compound, 45 min, 4 °C, RIPA buffer; sonicated HEK293T genomic DNA

| Compound | % reduction of co-precipitated Alu DNA at 100 μM [1] | DBID dot blot of protein binding to immobilised genomic DNA, chemiluminescence d [2] |
| --- | --- | --- |
| CCN(CC)Cc1ccc2cc(COC(=O)Nc3ccc(C(=O)NO)cc3)ccc2c1 [Givinostat] | 70-80% | – |
| CC(NC(=O)c1ccccc1/N=C/c1c(O)ccc2ccccc12)c1ccccc1 (stereo not drawn) [Sirtinol] | – | (ii) moderate inhibition (Sirtinol and Tenovin-I) |
| CC(=O)Nc1ccc(NC(=S)NC(=O)c2ccc(C(C)(C)C)cc2)cc1 [Tenovin-1] | – | (ii) moderate inhibition (Sirtinol and Tenovin-I) |
